# Results taken from patent publication US20250145665A1, “MACROCYCLIC PEPTIDES USEFUL AS MODULATORS OF TNF ALPHA” (Bristol-Myers Squibb Company, priority 2023, published 2025).
# Starred links: 1 amine or outer side, 2 acyl side, 3 side chain; linkers in the order of their positions; H or OH if unused. Positions of bridges follow the written chain, without caps; N, C: chain ends. Non-standard residues stand in square brackets, D forms with d. Residues, ends and D or L forms follow the SMILES beside them. *: point of attachment. Bip(4'-NHCO-C6H4-3-CH2COOH) = N[C@@H](Cc1ccc(-c2ccc(NC(=O)c3cccc(CC(=O)O)c3)cc2)cc1)C(=O)O; Bip(4'-NHCO-C6H4-4-CH2COOH) = N[C@@H](Cc1ccc(-c2ccc(NC(=O)c3ccc(CC(=O)O)cc3)cc2)cc1)C(=O)O; X34 = Cc1cc(C(=O)O)cc(C(=O)Nc2ccc(-c3ccc(C[C@H](N[*:1])C(=O)[*:2])cc3)cc2)c1; X5 = Cn1nc(C(=O)Nc2ccc(-c3ccc(C[C@H](N[*:1])C(=O)[*:2])cc3)cc2)c2ccccc21; Bip(4'-NH) = O=C([C@H](Cc1ccc(-c2ccc(N[*:3])cc2)cc1)N[*:1])[*:2]; Bip(4'-CONHMe) = CNC(=O)c1ccc(-c2ccc(C[C@H](N)C(=O)O)cc2)cc1; Indazole3carbonyl(1-CH2COOH) = O=C(O)Cn1nc(C(=O)*)c2ccccc21; X72 = N=C(N)Nc1ccc(CCNC(=N)NCCC[C@@H](N[*:1])C(=O)[*:2])cc1; X23 = N=C(N)Nc1ccc(CNC(=N)NCCC[C@@H](N[*:1])C(=O)[*:2])cc1; X25 = N=C(N)Nc1cccc(CNC(=N)NCCC[C@@H](N[*:1])C(=O)[*:2])c1; X1 = N=C(NCCC[C@@H](N[*:1])C(=O)[*:2])NCCc1ccc2ccccc2c1; X30 = N#Cc1ccc(CCNC(=N)NCCC[C@@H](N[*:1])C(=O)[*:2])cc1; X8 = N=C(NCCC[C@@H](N[*:1])C(=O)[*:2])NCCc1ccc(CN)cc1; X55 = N=C(NCCC[C@@H](N[*:1])C(=O)[*:2])NCCc1cccnc1; Ala(morpholin-4-yl) = N[C@@H](CN1CCOCC1)C(=O)O; Benzoyl(3-OCH2COOH) = O=C(O)COc1cccc(C(=O)*)c1; Bip = N[C@@H](Cc1ccc(-c2ccccc2)cc1)C(=O)O; Cha = N[C@@H](CC1CCCCC1)C(=O)O; Sar = CNCC(=O)O
# Biological target: TNFα (Homo sapiens, UniProt P01375)
# Sequence (P01375 77-233 limits assumed): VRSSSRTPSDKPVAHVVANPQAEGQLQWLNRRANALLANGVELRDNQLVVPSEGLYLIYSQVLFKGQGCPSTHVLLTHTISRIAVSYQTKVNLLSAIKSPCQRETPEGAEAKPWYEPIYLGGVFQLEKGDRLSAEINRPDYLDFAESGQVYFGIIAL
# Test: TNF-Induced HEK-Blue Assay
# Format: cell-based
# Conditions: not given
row,SMILES,IC50 [nM]
1,CNC(=O)c1ccc(-c2ccc(C[C@@H]3NC(=O)[C@H](CN4CCOCC4)NC(=O)CSC[C@@H](C(=O)NCC(N)=O)NC(=O)[C@H](CC(C)C)NC(=O)[C@H](CCCNC(=N)N)NC(=O)[C@H](C(C)C)NC(=O)[C@@H]4CCCN4C(=O)[C@H](C(C)C)NC(=O)[C@@H](CCCNC(=N)NCCc4ccc(C#N)cc4)NC(=O)[C@H](CC(=O)O)NC(=O)[C@@H]4CCCN4C(=O)CN(C)C(=O)[C@H](Cc4ccc(-c5ccc(NC(=O)c6nn(CC(=O)O)c7ccccc67)cc5)cc4)NC3=O)cc2)cc1 [Example 430] ({CH2CO}-[Ala(morpholin-4-yl)][Bip(4'-CONHMe)][Bip(4'-NH)](Indazole3carbonyl(1-CH2COOH))[Sar]PD[X30]VPVRLCG-NH2; thioether N-13),< 50
2,CNC(=O)c1ccc(-c2ccc(C[C@@H]3NC(=O)[C@H](CN4CCOCC4)NC(=O)CSC[C@@H](C(=O)NCC(N)=O)NC(=O)[C@H](CC(C)C)NC(=O)[C@H](CCCNC(=N)N)NC(=O)[C@H](C(C)C)NC(=O)[C@@H]4CCCN4C(=O)[C@H](C(C)C)NC(=O)[C@@H](CCCNC(=N)NCCc4ccc(CN)cc4)NC(=O)[C@H](CC(=O)O)NC(=O)[C@@H]4CCCN4C(=O)CN(C)C(=O)[C@H](Cc4ccc(-c5ccc(NC(=O)c6nn(CC(=O)O)c7ccccc67)cc5)cc4)NC3=O)cc2)cc1 [Example 431] ({CH2CO}-[Ala(morpholin-4-yl)][Bip(4'-CONHMe)][Bip(4'-NH)](Indazole3carbonyl(1-CH2COOH))[Sar]PD[X8]VPVRLCG-NH2; thioether N-13),50 to 200
3,CC(C)C[C@@H]1NC(=O)[C@H](CCCNC(=N)N)NC(=O)[C@H](C(C)C)NC(=O)[C@@H]2CCCN2C(=O)[C@H](C(C)C)NC(=O)[C@@H](CCCNC(=N)NCc2ccc(NC(=N)N)cc2)NC(=O)[C@H](CC(=O)O)NC(=O)[C@@H]2CCCN2C(=O)CN(C)C(=O)[C@H](Cc2ccc(-c3ccc(NC(=O)c4nn(CC(=O)O)c5ccccc45)cc3)cc2)NC(=O)[C@H](Cc2ccc(-c3ccccc3)cc2)NC(=O)[C@H](CN2CCOCC2)NC(=O)CSC[C@@H](C(=O)NCC(N)=O)NC1=O [Example 432] ({CH2CO}-[Ala(morpholin-4-yl)][Bip][Bip(4'-NH)](Indazole3carbonyl(1-CH2COOH))[Sar]PD[X23]VPVRLCG-NH2; thioether N-13),50 to 200
4,CC(C)C[C@@H]1NC(=O)[C@H](CCCNC(=N)N)NC(=O)[C@H](C(C)C)NC(=O)[C@@H]2CCCN2C(=O)[C@H](C(C)C)NC(=O)[C@@H](CCCNC(=N)NCCc2ccc3ccccc3c2)NC(=O)[C@H](CC(=O)O)NC(=O)[C@@H]2CCCN2C(=O)CN(C)C(=O)[C@H](Cc2ccc(-c3ccc(NC(=O)c4nn(CC(=O)O)c5ccccc45)cc3)cc2)NC(=O)[C@H](Cc2ccc(-c3ccccc3)cc2)NC(=O)[C@H](CN2CCOCC2)NC(=O)CSC[C@@H](C(=O)NCC(N)=O)NC1=O [Example 433] ({CH2CO}-[Ala(morpholin-4-yl)][Bip][Bip(4'-NH)](Indazole3carbonyl(1-CH2COOH))[Sar]PD[X1]VPVRLCG-NH2; thioether N-13),50 to 200
5,CC(C)C[C@@H]1NC(=O)[C@H](CCCNC(=N)N)NC(=O)[C@H](C(C)C)NC(=O)[C@@H]2CCCN2C(=O)[C@H](C(C)C)NC(=O)[C@@H](CCCNC(=N)NCCc2cccnc2)NC(=O)[C@H](CC(=O)O)NC(=O)[C@@H]2CCCN2C(=O)CN(C)C(=O)[C@H](Cc2ccc(-c3ccc(NC(=O)c4nn(CC(=O)O)c5ccccc45)cc3)cc2)NC(=O)[C@H](Cc2ccc(-c3ccccc3)cc2)NC(=O)[C@H](CN2CCOCC2)NC(=O)CSC[C@@H](C(=O)NCC(N)=O)NC1=O [Example 434] ({CH2CO}-[Ala(morpholin-4-yl)][Bip][Bip(4'-NH)](Indazole3carbonyl(1-CH2COOH))[Sar]PD[X55]VPVRLCG-NH2; thioether N-13),50 to 200
6,CC(C)C[C@@H]1NC(=O)[C@H](CCCNC(=N)N)NC(=O)[C@H](C(C)C)NC(=O)[C@@H]2CCCN2C(=O)[C@H](C(C)C)NC(=O)[C@@H](CCCNC(=N)NCc2cccc(NC(=N)N)c2)NC(=O)[C@H](CC(=O)O)NC(=O)[C@@H]2CCCN2C(=O)CN(C)C(=O)[C@H](Cc2ccc(-c3ccc(NC(=O)c4nn(CC(=O)O)c5ccccc45)cc3)cc2)NC(=O)[C@H](Cc2ccc(-c3ccccc3)cc2)NC(=O)[C@H](CN2CCOCC2)NC(=O)CSC[C@@H](C(=O)NCC(N)=O)NC1=O [Example 435] ({CH2CO}-[Ala(morpholin-4-yl)][Bip][Bip(4'-NH)](Indazole3carbonyl(1-CH2COOH))[Sar]PD[X25]VPVRLCG-NH2; thioether N-13),< 50
7,CC(C)C[C@@H]1NC(=O)[C@H](CCCNC(=N)N)NC(=O)[C@H](C(C)C)NC(=O)[C@@H]2CCCN2C(=O)[C@H](C(C)C)NC(=O)[C@@H](CCCNC(=N)NCCc2ccc(NC(=N)N)cc2)NC(=O)[C@H](CC(=O)O)NC(=O)[C@@H]2CCCN2C(=O)CN(C)C(=O)[C@H](Cc2ccc(-c3ccc(NC(=O)c4nn(CC(=O)O)c5ccccc45)cc3)cc2)NC(=O)[C@H](Cc2ccc(-c3ccccc3)cc2)NC(=O)[C@H](CN2CCOCC2)NC(=O)CSC[C@@H](C(=O)NCC(N)=O)NC1=O [Example 436] ({CH2CO}-[Ala(morpholin-4-yl)][Bip][Bip(4'-NH)](Indazole3carbonyl(1-CH2COOH))[Sar]PD[X72]VPVRLCG-NH2; thioether N-13),< 50

# Same assay, conditions: HEK-Blue-CD40L cells, NF-kB-driven secreted alkaline phosphatase reporter; TNFα 0.5 ng/ml; 18 h; read-out: TNF induced HEK-Blue assay IC50 value
row,IC50 [nM],SMILES
1,< 50,CC[C@H](C)[C@@H]1NC(=O)[C@@H](CCCNC(=N)N)NC(=O)[C@H](CC(=O)O)NC(=O)[C@H](Cc2cnc[nH]2)NC(=O)CN(C)C(=O)[C@H](Cc2ccc(-c3ccc(NC(=O)c4cccc(OCC(=O)O)c4)cc3)cc2)NC(=O)[C@H](Cc2ccc(-c3ccccc3)cc2)NC(=O)[C@H](CN2CCOCC2)NC(=O)CSC[C@@H](C(=O)NCC(N)=O)NC(=O)[C@H](CC(C)C)NC(=O)[C@H](Cc2cnc[nH]2)NC(=O)[C@H](C(C)C)NC(=O)[C@@H]2CCCN2C1=O [Example 441] ({CH2CO}-[Ala(morpholin-4-yl)][Bip][Bip(4'-NH)](Benzoyl(3-OCH2COOH))[Sar]HD[dR]IPVHLCG-NH2; thioether N-13)
2,50 to 200,CC[C@H](C)[C@@H]1NC(=O)[C@@H](CCCNC(=N)N)NC(=O)[C@H](CC(=O)O)NC(=O)[C@@H]2CCCN2C(=O)CN(C)C(=O)[C@H](Cc2ccc(-c3ccc(NC(=O)c4cccc(OCC(=O)O)c4)cc3)cc2)NC(=O)[C@H](Cc2ccc(-c3ccccc3)cc2)NC(=O)[C@H](CC2CCCCC2)NC(=O)CSC[C@@H](C(=O)NCC(N)=O)NC(=O)[C@H](CC(C)C)NC(=O)[C@H](Cc2cnc[nH]2)NC(=O)[C@H](C(C)C)NC(=O)[C@@H]2CCCN2C1=O [Example 442] ({CH2CO}-[Cha][Bip][Bip(4'-NH)](Benzoyl(3-OCH2COOH))[Sar]PD[dR]IPVHLCG-NH2; thioether N-13)
3,< 50,CC[C@H](C)[C@@H]1NC(=O)[C@@H](CCCNC(=N)N)NC(=O)[C@H](CC(=O)O)NC(=O)[C@H](Cc2cnc[nH]2)NC(=O)CN(C)C(=O)[C@H](Cc2ccc(-c3ccc(NC(=O)c4cc(C)cc(C(=O)O)c4)cc3)cc2)NC(=O)[C@H](Cc2ccc(-c3ccccc3)cc2)NC(=O)[C@H](CC2CCCCC2)NC(=O)CSC[C@@H](C(=O)NCC(N)=O)NC(=O)[C@H](CC(C)C)NC(=O)[C@H](Cc2cnc[nH]2)NC(=O)[C@H](C(C)C)NC(=O)[C@@H]2CCCN2C1=O [Example 443] ({CH2CO}-[Cha][Bip][X34][Sar]HD[dR]IPVHLCG-NH2; thioether N-13)
4,< 50,CC[C@H](C)[C@@H]1NC(=O)[C@@H](CCCNC(=N)N)NC(=O)[C@H](CC(=O)O)NC(=O)[C@H](Cc2cnc[nH]2)NC(=O)CN(C)C(=O)[C@H](Cc2ccc(-c3ccc(NC(=O)c4cccc(CC(=O)O)c4)cc3)cc2)NC(=O)[C@H](Cc2ccc(-c3ccccc3)cc2)NC(=O)[C@H](CC2CCCCC2)NC(=O)CSC[C@@H](C(=O)NCC(N)=O)NC(=O)[C@H](CC(C)C)NC(=O)[C@H](Cc2cnc[nH]2)NC(=O)[C@H](C(C)C)NC(=O)[C@@H]2CCCN2C1=O [Example 444] ({CH2CO}-[Cha][Bip][Bip(4'-NHCO-C6H4-3-CH2COOH)][Sar]HD[dR]IPVHLCG-NH2; thioether N-13)
5,< 50,CC[C@H](C)[C@@H]1NC(=O)[C@@H](CCCNC(=N)N)NC(=O)[C@H](CC(=O)O)NC(=O)[C@H](Cc2cnc[nH]2)NC(=O)CN(C)C(=O)[C@H](Cc2ccc(-c3ccc(NC(=O)c4ccc(CC(=O)O)cc4)cc3)cc2)NC(=O)[C@H](Cc2ccc(-c3ccccc3)cc2)NC(=O)[C@H](CC2CCCCC2)NC(=O)CSC[C@@H](C(=O)NCC(N)=O)NC(=O)[C@H](CC(C)C)NC(=O)[C@H](Cc2cnc[nH]2)NC(=O)[C@H](C(C)C)NC(=O)[C@@H]2CCCN2C1=O [Example 445] ({CH2CO}-[Cha][Bip][Bip(4'-NHCO-C6H4-4-CH2COOH)][Sar]HD[dR]IPVHLCG-NH2; thioether N-13)

row,SMILES,IC50 [nM]
1,CC(C)C[C@@H]1NC(=O)[C@H](CCCNC(=N)N)NC(=O)[C@H](C(C)C)NC(=O)[C@@H]2CCCN2C(=O)[C@H](C(C)C)NC(=O)[C@@H](CCCNC(=N)NCc2cccc(NC(=N)N)c2)NC(=O)[C@H](CC(=O)O)NC(=O)[C@@H]2CCCN2C(=O)CN(C)C(=O)[C@H](Cc2ccc(-c3ccc(NC(=O)c4nn(C)c5ccccc45)cc3)cc2)NC(=O)[C@H](Cc2ccc(-c3ccccc3)cc2)NC(=O)[C@H](CN2CCOCC2)NC(=O)CSC[C@@H](C(=O)NCC(N)=O)NC1=O [Example 438] ({CH2CO}-[Ala(morpholin-4-yl)][Bip][X5][Sar]PD[X25]VPVRLCG-NH2; thioether N-13),50 to 200
2,CC(C)C[C@@H]1NC(=O)[C@H](CCCNC(=N)N)NC(=O)[C@H](C(C)C)NC(=O)[C@@H]2CCCN2C(=O)[C@H](C(C)C)NC(=O)[C@@H](CCCNC(=N)NCCc2ccc(NC(=N)N)cc2)NC(=O)[C@H](CC(=O)O)NC(=O)[C@@H]2CCCN2C(=O)CN(C)C(=O)[C@H](Cc2ccc(-c3ccc(NC(=O)c4nn(C)c5ccccc45)cc3)cc2)NC(=O)[C@H](Cc2ccc(-c3ccccc3)cc2)NC(=O)[C@H](CN2CCOCC2)NC(=O)CSC[C@@H](C(=O)NCC(N)=O)NC1=O [Example 439] ({CH2CO}-[Ala(morpholin-4-yl)][Bip][X5][Sar]PD[X72]VPVRLCG-NH2; thioether N-13),50 to 200
